# From ChEMBL document CHEMBL1140432, “Synthesis and biological evaluation of a novel series of "ortho-nitrated" inhibitors of catechol-O-methyltransferase” (J Med Chem, 2005)
# Assays:
# [1] = biological target: T1, Catechol O-methyltransferase (Rattus norvegicus, UniProt P22734); assay: Inhibitory activity against COMT in rat brain; format: tissue-based
# T1 sequence (P22734 whole entry): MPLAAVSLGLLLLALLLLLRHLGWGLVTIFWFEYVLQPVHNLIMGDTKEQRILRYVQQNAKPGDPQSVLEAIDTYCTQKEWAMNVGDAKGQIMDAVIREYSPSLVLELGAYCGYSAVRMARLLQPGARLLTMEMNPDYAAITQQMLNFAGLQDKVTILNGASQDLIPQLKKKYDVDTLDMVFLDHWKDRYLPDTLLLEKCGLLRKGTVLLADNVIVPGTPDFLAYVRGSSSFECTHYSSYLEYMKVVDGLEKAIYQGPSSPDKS
# [2] = biological target: T1, Catechol O-methyltransferase; assay: Inhibitory activity against COMT in rat liver
SMILES,IC50 [1] [nM],IC50 [2] [nM]
O=C(Cc1ccccc1)c1ccc(O)c(O)c1[N+](=O)[O-],3,130
O=C(CCCCc1ccccc1)c1ccc(O)c(O)c1[N+](=O)[O-],4,110
O=C(CCCc1ccccc1)c1ccc(O)c(O)c1[N+](=O)[O-],4,130
O=C(CCc1ccccc1)c1ccc(O)c(O)c1[N+](=O)[O-],4,2000
